Tested on: FRT CFTR-F508del YFP iodide quenching, 24 h
Assay: restoration of mutant CFTR halide transport – FRT cells, YFP quenching, cherry-pick, dose response (AID 743402);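 further: compounds act as correctors raising surface CFTR-F508del before acute activation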
Conditions: not given

Compared with `CC1=NCCc2c1[nH]c1cc(O)ccc21`, `C[n+]1c2cc(N)ccc2cc2ccc(N)cc21` is 71-fold lower in AC35: 13.4 µM for the first, 0.19 µM for the second.

Compared with `C=C1C(=O)O[C@@H]2C[C@@H](C)[C@@H]3C=CC(=O)[C@@]3(C)[C@@H](O)[C@H]12`, `C[C@H]1CCC/C=C/[C@@H]2C[C@H](O)C[C@H]2[C@H](O)/C=C/C(=O)O1` is 2.9-fold higher in AC35: 5.32 µM for the first, 15.2 µM for the second.

First: Nc1ccc2ccc3cccc[n+]3c2c1
Second: CC[n+]1c(-c2ccccc2)c2cc(N)ccc2c2ccc(N)cc21
The AC35 of the first is 1.8-fold lower: 7.53 µM for the first, 13.3 µM for the second.

For `CCC1(C)OC(c2ccccc2)=C/C(=C/C=C2C(=O)NC(=O)NC2=O)O1` (stereo not given), the AC35 was 11.7 µM.

Same assay, conditions: channel opened with forskolin and a potentiator

`O=C(Nc1cccc(F)c1)N1CCCCN2[C@@H](CO)[C@H](c3ccc(C#CC4CC4)cc3)[C@@H]2C1` and `O=C(Nc1cccc(F)c1)N1CCCCN2[C@@H](CO)[C@H](c3ccc(C#Cc4ccccc4)cc3)[C@@H]2C1` are within 1.5-fold of each other in AC35: 20.8 µM for the first, 19.7 µM for the second.

Compared with `COC(C(=O)C(O)C(C)O)C1Cc2cc3cc(OC4CC(OC5CC(O)C(O)C(C)O5)C(O)C(C)O4)c(C)c(O)c3c(O)c2C(=O)C1OC1CC(OC2CC(OC3CC(O)C(OC)C(C)O3)C(O)C(C)O2)C(O)C(C)O1` (stereo not given), `COc1cccc2c1C(=O)c1c(O)c3c(c(O)c1C2=O)CC(O)(C(C)=O)CC3OC1CC(N(C)C)C(O)C(C)O1` (stereo not given) is 1.8-fold higher in AC35: 0.583 µM for the first, 1.03 µM for the second.

First: Cc1cc(C)c(/C=C2\C(=O)Nc3ccccc32)[nH]1
Second: Cc1cc2[nH]c3c(c[n+](C)c4ccccc34)c2cc1C
The AC35 of the first is 4.1-fold lower: 3.24 µM for the first, 13.4 µM for the second.

Going from `CN1/C(=C\C=C2/SC(=S)N(CC(=O)O)C2=O)C(C)(C)c2ccccc21` to `CN1C(=CC=C2C=C(I)C(=O)C(I)=C2)C(C)(C)c2ccccc21`, the AC35 rises from 1.37 µM to 5.68 µM (4.1-fold).

`COc1ccc(S(=O)(=O)N2CC[C@@H]3[C@H](CO)N(C)c4ccc(-c5ccc(F)cc5)cc4[C@@H]32)cc1` and `CN1c2ccc(-c3ccc(F)cc3)cc2[C@H]2[C@H](CCN2S(=O)(=O)c2cccc(F)c2)[C@H]1CO` are within 1.5-fold of each other in AC35: 15.3 µM for the first, 15.5 µM for the second.

`CCCC#Cc1ccc([C@H]2[C@H](CO)N3C(=O)CN(C(=O)Nc4cc(F)ccc4F)C[C@@H]23)cc1` and `O=C(Cc1ccccc1)N1CC(=O)N2[C@H](C1)[C@@H](c1ccc(C#Cc3ccccc3)cc1)[C@@H]2CO` are within 1.5-fold of each other in AC35: 23.3 µM for the first, 21.3 µM for the second.

First: N#CC(C#N)=C1C=C2C=C(N3CCOCC3)CCC2CC1 (stereo not given)
Second: N#CC(C#N)=C1C=C2C=C(N3CCCCCC3)CCC2CC1 (stereo not given)
The AC35 of the first is 1.6-fold higher: 0.14 µM for the first, 0.0871 µM for the second.

`N#Cc1ccc(-c2ccc3c(c2)[C@H]2[C@H](CCN2S(=O)(=O)c2ccccc2F)[C@@H](CO)N3)cc1` and `O=S(=O)(c1ccc(F)cc1)N1CC[C@@H]2[C@@H](CO)Nc3ccc(-c4ccc(F)cc4)cc3[C@@H]21` are within 1.5-fold of each other in AC35: 21.3 µM for the first, 17.7 µM for the second.

Compared with `CCOC(=O)/C(=C/C=C1\Sc2cc(C)c(C)cc2N1CC)C(C)=O`, `CCN1/C(=C\c2ccc3cc(C)ccc3[n+]2CC)Sc2cc(C)c(C)cc21` is 3.1-fold lower in AC35: 3.13 µM for the first, 1.02 µM for the second.

`N#Cc1ccc(-c2ccc(C3[C@@H]4CN(C(=O)C5CCC5)C[C@H]3N4)cc2)cc1` (stereo not given in full) and `O=C(C1CCCC1)N1CC(=O)N2[C@H](CO)[C@@H](c3ccc(-c4ccccc4F)cc3)[C@@H]2C1` are within 1.5-fold of each other in AC35: 22.1 µM for the first, 22.2 µM for the second.

`COc1cccc(S(=O)(=O)N2C[C@@H]3N[C@H](C2)C3c2ccc(-c3ccccc3F)cc2)c1` (stereo not given in full) and `COc1cccc(S(=O)(=O)N2C[C@@H]3N[C@H](C2)C3c2ccc(-c3cccc(C)c3)cc2)c1` (stereo not given in full) are within 1.5-fold of each other in AC35: 24.5 µM for the first, 21 µM for the second.

Compared with `Cc1cc(Nc2ccc(Br)cc2)nc2ccccc12`, `NS(=O)(=O)c1ccc(NC(=O)c2cccc3cc4ccccc4nc23)cc1` is 2.5-fold higher in AC35: 8.45 µM for the first, 20.9 µM for the second.

First: COc1cccc2c1C(=O)C=C(C)C2=O
Second: CNc1ccc2c3c(cccc13)C(=O)N(C)C2=O
The AC35 of the first is 10-fold higher: 6.68 µM for the first, 0.651 µM for the second.

`CCCC#Cc1ccc([C@H]2[C@@H](CO)N3CCCCN(S(=O)(=O)c4ccccc4C)C[C@H]23)cc1` and `COc1cccc(-c2ccc(C3[C@@H]4CN(S(=O)(=O)c5cccc(OC)c5)C[C@H]3N4)cc2)c1` (stereo not given in full) are within 1.5-fold of each other in AC35: 19 µM for the first, 16 µM for the second.

First: COC(=O)Cn1c(=NC(=O)c2cc(-c3cccs3)nc3ccccc23)sc2cc(S(N)(=O)=O)ccc21
Second: COc1cccc(Nc2nc(-c3sc(NC(=O)c4ccccc4)nc3C)cs2)c1
The AC35 of the first is 2.2-fold higher: 9.92 µM for the first, 4.43 µM for the second.

`O=C(O)c1ccccc1-c1c2cc(I)c(=O)c(I)c-2oc2c(I)c(O)c(I)cc12` and `Nc1ccc(-c2c3ccc(=O)cc-3oc3cc(O)ccc23)cc1C(=O)O` are within 1.5-fold of each other in AC35: 1.74 µM for the first, 1.61 µM for the second.

First: COc1cccc2c1C(=O)c1c(O)c3c(c(O)c1C2=O)C[C@](O)(C(C)=O)C[C@H]3O[C@@H]1C[C@@H](N)[C@@H](O)[C@@H](C)O1
Second: COc1c(C=O)c2c(c(OC)c1OC)-c1ccc(OC)c(=O)cc1C(NC(C)=O)CC2 (stereo not given)
The AC35 of the first is 13-fold lower: 1.65 µM for the first, 20.9 µM for the second.

First: COc1ccc(/C=N/NC(=O)c2cccnc2)cc1CSc1ccccn1
Second: COc1ccc(C(=O)NCCN(C)C)c2nc3ccccc3cc12
The AC35 of the first is 3.1-fold lower: 8.21 µM for the first, 25.7 µM for the second.

First: CC(=O)Nc1ccc2cc3ccc(NC(C)=O)cc3nc2c1
Second: C[n+]1c2cc(N)ccc2cc2ccc(N)cc21
The AC35 of the first is 7.8-fold higher: 3.98 µM for the first, 0.51 µM for the second.

First: C#C[C@]1(O)CC[C@H]2[C@@H]3CCc4cc(OC5CCCC5)ccc4[C@H]3CC[C@@]21C
Second: CCC1=C(CC2NCCc3ccccc32)CC2c3cc(OC)c(OC)cc3CCN2C1 (stereo not given)
The AC35 of the first is 1.6-fold higher: 25.1 µM for the first, 15.4 µM for the second.

Going from `CCCCN1C(=O)/C(=C/C=C2\Oc3ccccc3N2CC)SC1=S` to `COc1cc(/C=C2/SC(=S)N(Cc3ccccc3)C2=O)cc(Cl)c1O`, the AC35 rises from 1.64 µM to 3.7 µM (2.3-fold).

First: COc1cc(/C=C2\SC(=Nc3ccc(Cl)c(C(=O)O)c3)NC2=O)c(Br)c(Br)c1O
Second: O=C1/C(=C\c2cc(Cl)c(O)c(Cl)c2)SC(=S)N1Cc1ccccc1
The AC35 of the first is 10-fold higher: 2.19 µM for the first, 0.214 µM for the second.

`OC[C@@H]1[C@@H](c2ccccc2)C2(CN(Cc3ccccc3F)C2)N1Cc1ccccc1F` and `C[C@H]1CN([C@@H](C)CO)S(=O)(=O)c2ccc(/C=C/c3ccccc3)cc2O[C@H]1CN(C)Cc1ccccc1` are within 1.5-fold of each other in AC35: 23.1 µM for the first, 21.9 µM for the second.

First: CC(=O)OCCn1c2nc(=O)[nH]c(=O)c-2nc2cc(C)c(C)cc21
Second: CCOC1=C/C(=C/c2c(N)n3nc(S(=O)(=O)CC)sc3nc2=O)C=CC1=O
The AC35 of the first is 7.2-fold lower: 1.37 µM for the first, 9.92 µM for the second.

`C[C@@H]1CN([C@@H](C)CO)C(=O)Cc2cc(NC(=O)Nc3cccc4ccccc34)ccc2O[C@@H]1CN(C)Cc1ccc(Cl)c(Cl)c1` and `C[C@@H]1CN([C@@H](C)CO)C(=O)Cc2cc(N(C)C)ccc2O[C@@H]1CN(C)Cc1ccc(C(=O)Nc2ccccc2N)cc1` are within 1.5-fold of each other in AC35: 22.4 µM for the first, 19.7 µM for the second.

`CCCC(=O)NC1=C(Cl)C(=O)c2ccccc2C1=O` and `CC1(S(=O)(=O)O)CC(=O)c2ccccc2C1=O` (stereo not given) are within 1.5-fold of each other in AC35: 7.72 µM for the first, 6 µM for the second.

`CCN1C(=O)c2cccc3c(N)ccc(c23)C1=O` and `Nc1ccc2c3c(cccc13)C(=O)N(c1ccccc1)C2=O` are within 1.5-fold of each other in AC35: 2.83 µM for the first, 1.93 µM for the second.

Compared with `N#C/C(=C/c1ccc(N2CCCCC2)o1)C(=O)Nc1ccc2ccccc2c1`, `COc1ccccc1N1CCN(C(=O)c2ccc(-c3ccc(Cl)cc3)o2)CC1` is 3.1-fold higher in AC35: 2.37 µM for the first, 7.37 µM for the second.

`CCN(CC)CCn1c2ccccc2c2nc3ccccc3nc21` and `c1ccc2c(NCCCN3CCOCC3)c3ccccc3nc2c1` are within 1.5-fold of each other in AC35: 17.3 µM for the first, 16.6 µM for the second.

Going from `CCN(CC)C1=CC2=CC(=C(C#N)C#N)CCC2CC1` (stereo not given) to `CC1=C/C(=C\C=C(C#N)C#N)N(C)c2ccccc21`, the AC35 rises from 0.0855 µM to 5.2 µM (61-fold).

`Cc1ccnc(N2C(=O)c3cccc4c([N+](=O)[O-])ccc(c34)C2=O)c1` and `Cc1ccc(N2C(=O)c3cccc4c([N+](=O)[O-])ccc(c34)C2=O)c2cccnc12` are within 1.5-fold of each other in AC35: 7.01 µM for the first, 4.81 µM for the second.

First: COc1ccccc1Nc1nc(-c2sc(NC(=O)C(C)(C)C)nc2C)cs1
Second: COc1ccc(OC)c(Nc2nc(-c3sc(NC(=O)C(C)(C)C)nc3C)cs2)c1
The AC35 of the first is 3.9-fold higher: 3.51 µM for the first, 0.908 µM for the second.

First: c1ccc2c(c1)C1=NCCN1c1ccccc1-2
Second: N#C/C(=C\c1ccccn1)c1nc2ccccc2s1
The AC35 of the first is 2.6-fold higher: 8.91 µM for the first, 3.38 µM for the second.

Going from `C=C1SC(Nc2c(C)cc(C)cc2C)=NC12CCCCC2` to `CC(C)N1CCc2c(sc(NC(=O)c3ccc([N+](=O)[O-])o3)c2C(N)=O)C1`, the AC35 rises from 3.59 µM to 6.42 µM (1.8-fold).

Going from `CO[C@@]12[C@@H]3N[C@@H]3CN1C1=C(C(=O)C(N)=C(C)C1=O)[C@@H]2COC(N)=O` to `CC(C)(C)c1ccc(OCC(=O)Nc2ccc3c4c(cccc24)C(=O)NC3=O)cc1`, the AC35 falls from 19.4 µM to 6.68 µM (2.9-fold).

`CN(C)CCNC(=O)c1ccc(Cl)c2cc3ccccc3nc12` and `CN(C)CCNc1ccc2ncn3c4ccc(O)cc4c(=O)c1c23` are within 1.5-fold of each other in AC35: 9.45 µM for the first, 8.57 µM for the second.

Compared with `CCC(=O)N1CC2(CCN(Cc3ccc(Cl)cc3)CC2)c2c([nH]c3cc(OC)ccc23)[C@H]1CO`, `COc1ccc(S(=O)(=O)Nc2ccc3c(c2)C(=O)N([C@@H](C)CO)C[C@@H](C)[C@H](CN(C)Cc2ccc(Oc4ccccc4)cc2)O3)cc1` is 15-fold lower in AC35: 22.2 µM for the first, 1.52 µM for the second.

Compared with `O=C1c2cccc3c(O)ccc(c23)C(=O)N1Cc1ccco1`, `O=C1c2cccc3c([N+](=O)[O-])ccc(c23)C(=O)N1Cc1cccnc1` is 3.5-fold higher in AC35: 2.65 µM for the first, 9.18 µM for the second.

First: CC(=O)Oc1ccc(N2C(=O)c3cccc4c([N+](=O)[O-])ccc(c34)C2=O)cc1
Second: O=[N+]([O-])c1ccc(/C=C/C2=NN(c3ccccc3)C(c3ccco3)C2)o1 (stereo not given)
The AC35 of the first is 2.9-fold higher: 8.38 µM for the first, 2.93 µM for the second.

First: COC(=O)c1cc2c(=O)c3ccccc3oc2nc1/C=C/N(C)C
Second: COc1cc(OC)cc(C(=O)N[C@H](C(=O)Nc2nc3ccccc3[nH]2)C(C)C)c1
The AC35 of the first is 17-fold lower: 0.544 µM for the first, 9.27 µM for the second.

First: CCOc1ccc(C)cc1S(=O)(=O)n1cnc2ccccc21
Second: O=[N+]([O-])c1ccc(Sc2cccc[n+]2[O-])c2nonc12
The AC35 of the first is 3.2-fold higher: 15.9 µM for the first, 4.93 µM for the second.

In the case of `CCOC(=O)C1CCCN(c2ccc([N+](=O)[O-])c3nonc23)C1` (stereo not given), the AC35 is reported as 5.34 µM.
